Here are results for two compounds from EP0330824A1, “Use of quinolizine and quinolizinone derivatives in the manufacture of medicaments for the treatment of cardiac arrhythmias” (MERRELL DOW PHARMACEUTICALS INC., priority 1988, dated 1989).

The test system of assay [1] is action potential of isolated cardiac tissue. The assay can be described thus: Action potential of isolated cardiac tissue (Purkinje fiber or papillary muscle). Also noted: species or system dog or guinea pig. To be noted: 10⁻⁸ to 10⁻⁵ moles/liter in tissue bath, stimulation at 1 Hz. The text has this: A gas mixture comprised of 95% O₂ and 5% CO₂ is bubbled through the solution while it is maintained within a pH range of from 7.3-7.4.
The heart of an anesthetized mongrel dog is surgically removed and the Purkinje fibers are dissected from either of the ventricles. Alternately, papillary muscles are removed from the right cardiac ventricle of a guinea pig. A Purkinje fiber or a papillary muscle is then placed in a tissue bath which is continuously perfused with modified Tyrode's solution.¹
The electrophysiology of the cardiac tissue is monitored by conventional glass microelectrodes. One microelectrode is inserted into a cell in the cardiac muscle fiber and a ground electrode is positioned in the tissue bath. A conventional oscilloscope is utilized to visualize the action potential waveforms of the cardiac cell. […]
At this point, representative control action potentials are recorded and analyzed by a computer.
After establishing a control action potential, the test compound is introduced into the Modified Tyrode's solution in a quantity such that the test compound is present within the tissue bath in a range of from 10⁻⁸ to 10⁻⁵ moles/liter. After the effect of the test compound has reached a steady state, the action potential is again recorded and analyzed in the manner described above.

The subject of assay [2] is Von Bezold-Jarisch Reflex induced by 5-HT. As to the kind of experiment: Von Bezold-Jarisch Reflex induced by intravenous 5-HT. The assay is classed as in vivo. The following applies: rat. The source says:
The activity of these compounds against 5-HT can be assessed in vivo by measurement of the effect of the compound on the Von Bezold-Jarisch Reflex induced by 5-HT injected intravenously into the rat (see Paintal A.S., Physiol. Rev. 53, 159-227, 1973; J.R. Fozard, Naunyn-Schmiedeberg's Arch. Pharmacol., 326, 1984, 36-44). The transient cardiac slowing arises from an increased afferent vagus activity arising from stimulation by 5-HT of sensory afferent fibers in and around the heart.

Counter-ions that a name gives are not always drawn.

Turning to `O=C(OC1CC2CC3CC(C1)N2CC3=O)c1c[nH]c2ccccc12` (stereo not drawn) [endo-hexahydro-8-(3-indolylcarbonyloxy)-2,6-methano-2H-quinolizin-3(4H)-one], the “rate of maximal depolarization of the action potential” value in assay [1] was “capable of delaying the rate of maximal depolarization of the action potential”.

Turning to `O=C(OC1CC2CC3CC(C1)N2CC3=O)c1c[nH]c2ccccc12` (stereo not drawn) [endo-hexahydro-8-(3-indolylcarbonyloxy)-2,6-methano-2H-quinolizin-3(4H)-one hydrochloride], the “suppression of the Von Bezold-Jarisch Reflex response” value in assay [2] (0.01-0.1 mg/kg given intravenously) and in assay [2] (0.25-1 mg/kg given orally) was “suppressed the response dose-dependently” each time.
